Results as given in US20250228861A1, “Cancer Treatments Using MTA-Cooperative PRMT5 Inhibitors” (AMGEN INC., priority 2022, published 2025).
Entries after “also recorded” stand apart in the source; their conditions may differ. Where two headings read alike, the source gives them in different places.

What was measured:
[1] = tested on: MIAPACA2T2 cells; conditions: 6 days
Experimental: (§3) Cell viability was measured by the CellTiter-Glo Luminescence assay. Raw luminescent values were converted to fraction affected (Fa) with the following equation:
(§4) Synergy analysis was performed using the CalcuSyn software to determine CI scores based on the drug concentrations used and corresponding Fa values.

[2] = tested on: PSN1 cells; conditions: 6 days
Experimental: as §3, §4

[3] = tested on: HAP1- and HCT116 MTAP-null cells; experiment: Global SDMA levels (ELISA / in-cell imaging) in MTAP-null cells; assay type: cell-based; conditions: HAP1 ELISA 3 days, HCT116 in-cell imaging 4 days
Experimental: (§1) FIG. 1. […] Viability was measured by CellTiter-Glo and cooperativity was determined as follows: Cooperativity=WT IC50/MTAP-null IC50.
HAP1 WT and MTAP-null global SDMA levels were assessed by an ELISA assay after 3 days treatment.
HCT116 WT and MTAP-null global SDMA levels were assessed by an in-cell imaging assay after 4 days treatment.

[4] = tested on: HAP1- and HCT116 MTAP-null cells; experiment: 6-day CellTiter-Glo viability in MTAP-null cells; assay type: cell-based; conditions: 144 h, 6 days, read-out: proliferation, IC50
Experimental: as §1
(§2) Plated cells were at optimized cell density in 96-well black walled, clear bottom tissue culture plates in 90 μL of growth media. Cells were incubated at room temperature for 30 minutes prior to placing in incubator at 37° C. and 5% CO2 overnight. […] Secondary compound dilutions (1:100) in media were done in the 96-well V-Bottom plate by adding 3 μL of the primary dilution to 297 μL of culture media. Finally, 10 μL from the secondary compound dilutions were added to cells in triplicate (1:10 dilution; final DMSO concentration 0.1%). Once addition was complete, plates were incubated at 37° C. and 5% CO2. […] Percent of Control (POC) values were calculated as follows: POC=100*(Treatment/Vehicle). Mean POC values were then calculated for each treatment condition and used to fit dose response curves applying a four parameter logistic curve in GraphPad Prism 7.

[5] = tested on: HCT116 MTAP-WT cells; experiment: 6-day CellTiter-Glo viability in MTAP-WT cells; assay type: cell-based; conditions: Homo sapiens, HCT-116, 144 h, 6 days, read-out: proliferation, IC50
Experimental: as §1, §2

[6] = tested on: endogenous wild-type or MTAP-null cell lines; experiment: 6-day viability in expanded panel of tumor cell lines; assay type: cell-based; conditions: endogenous MTAP-null vs wild-type cell lines; 6-day CellTiter-Glo
Experimental: FIG. 9. […] Top concentration of tested was 10 μM (1 uM for DLBCL lines) with a total of nine 1:3 serial dilution steps and DMSO-only control. […] (mean±SD, n=3).

[7] = tested on: MTAP-null cells; experiment: In-vitro mechanism of action studies (DNA damage, cell cycle); assay type: cell-based; conditions: data not shown
[8] = tested on: DOHH-2 endogenous MTAP-null xenografts; conditions: mouse, in vivo, po
Experimental: FIG. 10. […] Female SCID mice were implanted with DOHH-2 or BxPC-3 tumors. […] Data represent group means±SEM, n=10. Terminal DOHH-2 or BxPC-3 tumors were collected for SDMA ELISA analysis. Data represent mean±SD, n=5 for each group. STATS: P values were determined by Linear Mixed-Effects Model with a Dunnett's comparison to control; **p<0.01, ****p<0.0001.
FIG. 11. […] (A-D.) Female SCID mice were implanted with DOHH-2 tumors. […] Mice were dosed orally (p.o.) once a day for ten days. Data represent group means±SEM, n=10. A.) Terminal DOHH-2 tumor volumes. […] C.) Disaggregated tumors were stained for γH2AX, MFI (mean florescent intensity). D.) Cardiac bleeds were performed and analyzed on ADVIA.

[9] = tested on: BXPC-3 endogenous MTAP-null xenografts; experiment: BxPC-3 xenografts; assay type: in vivo; conditions: BxPC-3 xenografts in SCID mice; p.o. once a day
Description: FIG. 10. […] Data represent group means±SEM, n=10. […] Data represent mean±SD, n=5 for each group.

[10] = tested on: PSN1 cells; experiment: Combination with gemcitabine, CellTiter-Glo viability, Fa and CalcuSyn CI; conditions: 6 days
Experimental: as §3, §4

[11] = tested on: PSN1 cells; experiment: Combination with carboplatin, CellTiter-Glo viability, Fa and CalcuSyn CI; conditions: Compound B 0.0384 μM fixed + Carboplatin 3 μM, 6 days
Experimental: as §3, §4

[12] = Compound G 0.83102 μM fixed + 5-FU 0.664052 μM
[13] = Compound G 0.83102 μM fixed + 5-FU 0.929672 μM
[14] = Compound G 0.83102 μM fixed + 5-FU 1.30154 μM
[15] = Compound G 0.83102 μM fixed + 5-FU 1.82216 μM
[16] = Compound G 0.83102 μM fixed + 5-FU 2.55102 μM
[17] = Compound G 0.83102 μM fixed + 5-FU 3.57143 μM
[18] = Compound G 0.83102 μM fixed + 5-FU 5 μM
[19] = Compound G 0.0213 μM fixed + 5-FU 0.357628 μM
[20] = Compound G 0.0213 μM fixed + 5-FU 0.572205 μM
[21] = Compound G 0.0213 μM fixed + 5-FU 0.915527 μM
[22] = Compound G 0.0213 μM fixed + 5-FU 1.46484 μM
[23] = Compound G 0.0213 μM fixed + 5-FU 2.34375 μM
[24] = Compound G 0.0213 μM fixed + 5-FU 3.75 μM
[25] = Compound G 0.0213 μM fixed + 5-FU 6 μM
[26] = Compound B 0.022375 μM fixed + Gemcitabine 0.001461 μM
[27] = Compound B 0.022375 μM fixed + Gemcitabine 0.005612 μM

Compound: Nc1nc2cnc(C(=O)N3CCOC[C@@H]3c3ccc(C(F)(F)F)cc3)cc2c2c1COC2 [Compound G]
- Combination Fa [1, 12]: 0.7114
- Computed CI value [1, 12]: 0.445
- Combination Fa [1, 13]: 0.7511
- Computed CI value [1, 13]: 0.477
- Combination Fa [1, 14]: 0.8099
- Computed CI value [1, 14]: 0.482
- Combination Fa [1, 15]: 0.85
- Computed CI value [1, 15]: 0.529
- Combination Fa [1, 16]: 0.8941
- Computed CI value [1, 16]: 0.555
- Combination Fa [1, 17]: 0.9193
- Computed CI value [1, 17]: 0.632
- Combination Fa [1, 18]: 0.9246
- Computed CI value [1, 18]: 0.834
- Combination Fa [2, 19]: 0.3
- Computed CI value [2, 19]: 1.422
- Combination Fa [2, 20]: 0.416
- Computed CI value [2, 20]: 1.404
- Combination Fa [2, 21]: 0.669
- Computed CI value [2, 21]: 1.055
- Combination Fa [2, 22]: 0.74
- Computed CI value [2, 22]: 1.282
- Combination Fa [2, 23]: 0.789
- Computed CI value [2, 23]: 1.668
- Combination Fa [2, 24]: 0.836
- Computed CI value [2, 24]: 2.158
- Combination Fa [2, 25]: 0.869
- Computed CI value [2, 25]: 2.903

Compound: Cc1cc2cc(C(=O)N(Cc3ccc(C(F)(F)F)cn3)[C@@H](C)c3ncccn3)ccc2nc1N [Compound B]
- IC50 [3]: 0.2 nM
- IC50 [4]: 27 nM
- IC50 [5]: 630 nM
- proliferation / viability in expanded panel of tumor cell lines [6]: inhibited the proliferation of most MTAP-null cells, with minimal effects on MTAP-WT cells; also recorded: preferential activity in endogenous MTAP-null tumor cell lines; also recorded: preferentially inhibits cell viability in endogenous MTAP-null vs. wildtype
- DNA damage (phosphorylation of H2AX) [7]: induced DNA damage, as illustrated by increased phosphorylation of H2AX
- cell cycle [7]: an arrest in the G2/M phase of the cell cycle
- anti-tumor activity [8]: significant anti-tumor activity
- DNA damage response in tumors (γH2AX) ([8]; 100 mg/kg): increase in the DNA damage response
- cell cycle in tumors (BrdU/DAPI flow cytometry) ([8]; 100 mg/kg): cell cycle arrest
- anti-tumor activity [9]: significant anti-tumor activity
- Combination Fa [10, 26]: 0.594
- Computed CI value [10, 26]: 2.081
- Computed CI value ([10]; Compound B 0.022375 μM fixed + Gemcitabine 0.002045 μM): 1.177
- Combination Fa [10, 27]: 0.985
- Computed CI value [10, 27]: 0.8
- Combination Fa ([10]; Compound B 0.022375 μM fixed + Gemcitabine 0.007857 μM): 0.986
- Combination Fa ([10]; Compound B 0.022375 μM fixed + Gemcitabine 0.011 μM): 0.989
- Computed CI value [11]: 0.547
